# Test results taken from BindingDB's records for doi:10.1016/j.bioorg.2014.11.006 (Comsats Institute of Information Technology, 2015).
# Biological target: Alpha-glucosidase MAL12 (Saccharomyces cerevisiae (strain ATCC 204508 / S288c), UniProt P53341)
# Test: Alpha-glucosidase Inhibition Assay
# Settings: 37 °C
# Protocol: A 100 µL assay mixture containing 70 µL phosphate buffer saline (50 mM at pH 6.8), 10 µL corresponding test compounds dissolved in methanol/DMSO (0.5 mM) and 10 µL (0.057 units) α-glucosidase enzyme were mixed, pre-incubated for 10 min at 37C and the abosrbance was recorded at 400 nm. The reaction was initiated by the addition of 10 µL p-nitrophenyl-α-D-glucopyranoside (substrate, 0.5 mM/well).
# Chain of Alpha-glucosidase MAL12 (P53341 whole entry): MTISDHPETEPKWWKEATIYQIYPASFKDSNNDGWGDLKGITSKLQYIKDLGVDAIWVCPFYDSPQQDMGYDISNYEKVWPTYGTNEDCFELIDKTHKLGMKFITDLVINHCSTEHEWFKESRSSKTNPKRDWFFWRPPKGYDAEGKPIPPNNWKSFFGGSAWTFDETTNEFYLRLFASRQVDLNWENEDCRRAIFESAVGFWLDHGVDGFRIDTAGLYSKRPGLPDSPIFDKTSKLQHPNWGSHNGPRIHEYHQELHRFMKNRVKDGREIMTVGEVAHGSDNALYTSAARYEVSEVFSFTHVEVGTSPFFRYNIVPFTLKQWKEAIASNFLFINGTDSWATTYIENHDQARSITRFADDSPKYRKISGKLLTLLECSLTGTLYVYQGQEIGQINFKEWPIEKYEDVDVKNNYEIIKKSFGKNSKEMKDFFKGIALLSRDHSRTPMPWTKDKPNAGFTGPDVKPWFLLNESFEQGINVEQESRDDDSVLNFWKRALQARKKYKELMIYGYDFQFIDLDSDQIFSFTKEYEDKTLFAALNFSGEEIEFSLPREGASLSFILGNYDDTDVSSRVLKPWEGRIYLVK
row,IC50,Compound
1,359 µM,COc1cccc(-c2nc(-c3ccccc3)c(-c3ccccc3)[nH]2)c1
2,458 µM,Clc1ccc(-c2nc(-c3ccccc3)c(-c3ccccc3)[nH]2)cc1
3,107 µM,"COc1cccc(-c2nc(-c3ccccc3)c(-c3ccccc3)[nH]2)c1O [2-(4,5-Diphenyl-1H-imidazol-2-yl)-6-methoxyphenol (3g)]"
4,97.1 µM,Oc1ccc(-c2nc(-c3ccccc3)c(-c3ccccc3)[nH]2)cc1 [SR-01000511510-2]

row,Compound,IC50
1,Oc1ccccc1-c1nc(-c2ccccc2)c(-c2ccccc2)[nH]1,74.3 µM
